Data published in publication doi:10.1101/2023.03.15.532718v2, “Bacterial hemophilin homologs and their specific type eleven secretor proteins have conserved roles in heme capture and are diversifying as a family” (biorxiv, 2023).
Like-named read-outs stand apart in the source and are kept apart here.

How the values were obtained:
HrpC (Xn HrpC) = target: T1, HrpC (Xn HrpC) (Xenorhabdus nematophila, UniProt D3VG73); type: binding; conditions: 20 mM Tris-HCl pH 8.0, 21 °C, brackets 95% confidence interval
T1 construct: gene XNC1_0075; residues 23-247, signal peptide omitted, His6 tag cut by TEV leaving N-terminal Gly-His-Met, E. coli Rosetta-2, apo-protein by RP-HPLC

BSA = target: T2, BSA (Bos taurus, UniProt P02769); test: UV-visible absorption titration, […] fit; type: binding; conditions: 20 mM Tris-HCl pH 8.0, 21 °C, brackets 95% confidence interval
T2 construct: gene ALB

CrpC (Xc CrpC) = target: T3, CrpC (Xc CrpC) (Xenorhabdus cabanillasii, UniProt A0A3D9UFK6); type: binding; conditions: 20 mM Tris-HCl pH 8.0, 21 °C, brackets 95% confidence interval
T3 construct: gene BDD26_3141; residues 23-238, signal peptide omitted, His6 tag cut by TEV leaving N-terminal Gly-His-Met, E. coli Rosetta-2, apo as purified; HGB2490 is the authors' collection number

Hpl (hemophilin, Hh Hpl) = target: T4, Hpl (hemophilin, Hh Hpl) (Haemophilus haemolyticus, UniProt A0A0M3G7Q5); test: biochemical; type: binding
T4 construct: gene AAX18_03525; signal peptide omitted, expressed in E. coli cytoplasm as previously described, apo-protein by acid acetone; strain BW1 printed for the secretion clone only

Ab HphA = target: T5, Ab HphA (Acinetobacter baumannii, UniProt A0A059ZRB8); test: biochemical; set-up: UV-visible absorbance titration of porphyrin with protein, 1:1 fit with ligand depletion, 21 C pH 8.0
T5 construct: signal peptide omitted, expressed in E. coli cytoplasm, apo-protein
Method: Hemin binding measurements in absorbance mode were made by successive additions of apo-protein (∼0.4 mM stock) into porphyrin solution (1.5 µM) in 20 mM Tris-HCl, pH 8 at 21°C. All binding experiments were performed at 21°C. Data were fitted to a 1:1 binding model accounting for ligand depletion, where Fobs is fluorescence signal, F0 is the starting [drawing 1] fluorescence, Fsat is a scaling factor for fluorescence at saturation, L and M are the ligand and macromolecule concentrations, respectively, and Kd is the equilibrium dissociation constant. Data were fitted using GNUPLOT version 4.6. […] Here, SSbest is the sum-of-squares for the fit with all parameters floated; Dfn and Dfd are the degrees of freedom in the numerator and denominator, respectively, for calculation of F. The Kd value was then fixed at values above or below the best-fit Kd until fits exceeded the threshold sum-of-squares. To determine a lower limit of Kd that we could expect to fit from absorbance measurements we simulated data for different Kd values with Gaussian noise added to give fits with SSbest that matched our experimental data. […] Titration of hemophilin homologues with hemin. […] A) Spectra recorded after addition of H. haemolyticus Hpl to a final concentration in the range 0.3–4.5 µM. B) Spectra recorded after addition of A. baumannii HphA to a final concentration in the range 0.4–3.8 µM. […]

T2 sequence (P02769 25-607): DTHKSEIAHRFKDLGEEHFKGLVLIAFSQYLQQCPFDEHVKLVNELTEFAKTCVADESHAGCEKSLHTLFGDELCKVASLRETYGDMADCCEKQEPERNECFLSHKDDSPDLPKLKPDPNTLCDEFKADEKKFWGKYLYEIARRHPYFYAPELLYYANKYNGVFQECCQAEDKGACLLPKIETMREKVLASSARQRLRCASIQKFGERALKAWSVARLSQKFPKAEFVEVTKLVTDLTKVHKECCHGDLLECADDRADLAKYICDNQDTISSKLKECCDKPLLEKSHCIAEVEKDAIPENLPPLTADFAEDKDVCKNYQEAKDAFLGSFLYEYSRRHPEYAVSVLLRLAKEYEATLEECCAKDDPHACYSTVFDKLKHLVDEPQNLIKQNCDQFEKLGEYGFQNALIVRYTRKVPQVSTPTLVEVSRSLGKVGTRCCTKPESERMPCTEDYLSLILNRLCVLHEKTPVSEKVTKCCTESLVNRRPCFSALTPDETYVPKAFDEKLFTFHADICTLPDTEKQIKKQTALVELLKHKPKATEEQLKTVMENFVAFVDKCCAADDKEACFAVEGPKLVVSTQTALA
T3 sequence (A0A3D9UFK6 entry or part of it): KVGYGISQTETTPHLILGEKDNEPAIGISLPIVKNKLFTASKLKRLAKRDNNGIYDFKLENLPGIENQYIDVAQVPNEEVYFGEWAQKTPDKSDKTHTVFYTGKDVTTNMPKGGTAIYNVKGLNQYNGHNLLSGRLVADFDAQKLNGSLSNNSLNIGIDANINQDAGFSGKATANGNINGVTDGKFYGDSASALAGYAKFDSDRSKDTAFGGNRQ
T1 sequence (D3VG73 entry or part of it): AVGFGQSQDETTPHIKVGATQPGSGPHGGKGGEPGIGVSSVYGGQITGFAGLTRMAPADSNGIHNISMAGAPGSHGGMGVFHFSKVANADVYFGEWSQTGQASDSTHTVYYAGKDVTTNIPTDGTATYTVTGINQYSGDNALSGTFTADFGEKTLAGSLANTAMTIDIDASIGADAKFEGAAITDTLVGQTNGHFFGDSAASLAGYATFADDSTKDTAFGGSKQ
T5 sequence (A0A059ZRB8 whole entry): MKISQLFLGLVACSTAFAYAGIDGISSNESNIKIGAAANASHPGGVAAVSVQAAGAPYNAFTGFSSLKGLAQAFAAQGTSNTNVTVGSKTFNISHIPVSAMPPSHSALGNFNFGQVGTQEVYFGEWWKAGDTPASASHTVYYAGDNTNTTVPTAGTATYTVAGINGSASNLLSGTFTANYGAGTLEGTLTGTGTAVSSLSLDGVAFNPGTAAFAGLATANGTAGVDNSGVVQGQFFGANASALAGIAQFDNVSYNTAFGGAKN
T4 sequence (A0A0M3G7Q5 entry or part of it): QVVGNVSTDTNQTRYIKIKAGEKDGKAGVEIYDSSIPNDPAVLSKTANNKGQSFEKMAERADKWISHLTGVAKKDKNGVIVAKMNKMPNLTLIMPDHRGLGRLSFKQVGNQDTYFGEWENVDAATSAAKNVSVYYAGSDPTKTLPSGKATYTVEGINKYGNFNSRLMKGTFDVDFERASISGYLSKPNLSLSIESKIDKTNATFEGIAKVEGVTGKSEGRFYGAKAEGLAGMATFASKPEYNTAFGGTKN

| SMILES | Kd (HrpC (Xn HrpC)) [nM] | Kd (BSA) | Kd (CrpC (Xc CrpC)) | Kd (Hpl (hemophilin, Hh Hpl)) [nM] | Kd (Ab HphA) [nM] | Kd (HrpC (Xn HrpC); b21 prints both nM and µM for this value, table nM) [nM] | Kd (BSA; apparent Kd) | Kd (CrpC (Xc CrpC); apparent Kd) |
| --- | --- | --- | --- | --- | --- | --- | --- | --- |
| C=CC1=C(C)c2cc3[nH]c(cc4nc(cc5[nH]c(cc1n2)c(C)c5CCC(=O)O)C(CCC(=O)O)=C4C)c(C)c3C=C [PPIX] | 20 | 11 (6–14) × 10^3 nM | 7 (3–11) × 10^3 nM | 70 | ≤ 15 |  |  |  |
| C=CC1=C(C)C2=Cc3c(C=C)c(C)c4[n]3[Fe]([Cl])[n]3c(c(C)c(CCC(=O)O)c3=CC3=NC(=C4)C(C)=C3CCC(=O)O)=CC1=N2 [hemin] |  |  |  |  |  | 20 | 2 (1–5) × 10^3 nM | 5 (1–9) × 10^3 nM |
